Where two headings read alike, the source gives them in different places.
What was measured:
HEL cells [1] = details: read-out: CC50 (HEL); HEL cells; anti-VZV table
HIV-1 (IIIB) = test: Inhibition of HIV-1 (IIIB)-induced cytopathicity (giant cell formation) in CEM cells; assay type: cell-based; details: read-out: EC50 HIV-1 (concentration required to inhibit HIV-induced giant cell formation by 50%); HIV-1, CEM cell cultures
Method: (§1) A variety of glycopeptide antibiotic derivatives of vancomycin, eremomycin and teicoplanin including their aglycon derivatives were evaluated for their inhibitory activity against HIV-1 (IIIB) and HIV-2(ROD) in CEM cell cultures.

HIV-2(ROD) = test: Inhibition of HIV-2 (ROD)-induced cytopathicity (giant cell formation) in CEM cells; assay type: cell-based; details: read-out: EC50 HIV-2 (concentration required to inhibit HIV-induced giant cell formation by 50%); HIV-2, CEM cell cultures
Method: as §1

human lymphocyte CEM = test: Cytostatic activity assay, CEM cells; assay type: cell-based; details: read-out: IC50 CEM (compound concentration required to inhibit tumor cell proliferation by 50%)
VZV (wild-type strains) = test: Anti-VZV assay (wild-type strains): virus-induced cytopathicity in HEL cell cultures; assay type: cell-based, varicella-zoster virus; details: for EC50: HEL cell cultures
HEL cells [2] = details: anti-VZV table
murine leukemia L1210 = test: Cytostatic activity assay, L1210 cells; assay type: cell-based; details: read-out: IC50 L1210 (compound concentration required to inhibit tumor cell proliferation by 50%)
[3] = test system: human lymphocyte Molt4/clone 8; test: Cytostatic activity assay, Molt4/clone 8 cells; assay type: cell-based; details: read-out: IC50 Molt4/C8 (compound concentration required to inhibit tumor cell proliferation by 50%)
FCV = test: Feline corona virus assay in Feline Crandel kidney cells (MTS); assay type: cell-based; details: for EC50: FCV in FCK cells, read-out: EC50 FCV
Method: Feline Crandel kidney cells were seeded in 96-well microtiter plates at 24,000 cells/well. Then, 24 hrs later, an appropriate inoculum of FCV is added together with 5-fold dilutions of the test compounds. After 4 days, a MTS/PMS solution was added to each well. Following a 90 min incubation period at 37° C., the optical density of the wells was read at 498 nm in a microplate reader.

FCK cells = details: read-out: CC50 FCK; FCK cells
[4] = VZV strain OKA, read-out: EC50 VZV (OKA)
[5] = VZV strain YS, read-out: EC50 VZV (YS)

SMILES | CC50 (HEL cells [1]) | EC50 (HIV-1 (IIIB)) | EC50 (HIV-2(ROD)) | IC50 (human lymphocyte CEM) | EC50 (VZV (wild-type strains); [4]) | EC50 (VZV (wild-type strains); [5]) | MTC (HEL) (HEL cells [2]) | IC50 (murine leukemia L1210) | IC50 [3] | EC50 (FCV) | CC50 (FCK cells) | activity against VZV (VZV (wild-type strains)) | activity against FCV (FCV)
CCCCCCCCCCNC(=O)C1NC(=O)C2NC(=O)C(NC(=O)C3NC(=O)C4NC(=O)C(Cc5ccc(c(Cl)c5)Oc5cc3cc(c5O)Oc3ccc(cc3Cl)C2O)NC(=O)C(N)c2ccc(O)c(c2)Oc2cc(O)cc4c2)c2ccc(O)c(c2)-c2c1cc(O)c(CNCCCN(C)C)c2O (stereo not drawn) [Compound 20] | 169 µM | 4.5 ± 0.7 µM | 44 ± 1.4 µM | 53 ± 11 µM | 2 µM | 2.3 µM | ≧5-20 μM | 17 ± 9 µM | 58 ± 12 µM |  |  |  | 
NC(=O)CC1NC(=O)C(N)C(O)c2ccc(c(Cl)c2)Oc2cc3cc(c2O)Oc2ccc(cc2)C(O)C2NC(=O)C(NC(=O)C3NC1=O)c1ccc(O)c(c1)-c1c(O)cc(O)cc1C(C(=O)N1CCC3CCCCC3C1)NC2=O (stereo not drawn) [Compound 108] |  | 2.8 µM | 2 µM |  |  |  |  |  |  | 81 µM | > 300 µM |  | 
NC1C(=O)NC2Cc3ccc(c(Cl)c3)Oc3cc4cc(c3O)Oc3ccc(cc3Cl)C(O)C3NC(=O)C(NC(=O)C4NC(=O)C(NC2=O)c2cc(O)cc(c2)Oc2cc1ccc2O)c1ccc(O)c(c1)-c1c(cc(O)c(CN2CCN(N=Cc4ccc(Cl)cc4)CC2)c1O)C(C(=O)O)NC3=O (stereo not drawn) [Compound 17] | > 50 µM | 8 ± 2.8 µM | 22 ± 3.5 µM | > 100 µM | 4.1 µM | 4.2 µM | ≧20-200 μM | 97 ± 4.3 µM | > 100 µM |  |  |  | 
CCCCCCCCCC[N+](C)(C)CCCNCc1c(O)cc2c(c1O)-c1cc(ccc1O)C1NC(=O)C3NC(=O)C4NC(=O)C(Cc5ccc(c(Cl)c5)Oc5cc3cc(c5O)Oc3ccc(cc3Cl)C(O)C(NC1=O)C(=O)NC2C(=O)NCCO)NC(=O)C(N)c1ccc(O)c(c1)Oc1cc(O)cc4c1 (stereo not drawn) [Compound 36] | > 200 µM | 2.1 ± 0.14 µM | 4.2 ± 2.47 µM | ≥ 100 µM | ≥ 5 µM | 1.9 µM | ≧20-50 μM | 12 ± 0.1 µM | 73 ± 34 µM |  |  |  | 
CCCCCCCCCCNC(=O)C(N)CCCCNCc1c(O)cc2c(c1O)-c1cc(ccc1O)C1NC(=O)C3NC(=O)C4NC(=O)C(Cc5ccc(c(Cl)c5)Oc5cc3cc(c5O)Oc3ccc(cc3Cl)C(O)C(NC1=O)C(=O)NC2C(=O)NCCCN(C)C)NC(=O)C(N)c1ccc(O)c(c1)Oc1cc(O)cc4c1 (stereo not drawn) [Compound 16] | 137 µM | 3.5 ± 0.7 µM | 5.5 ± 2.1 µM | 389 ± 99 µM | 2.5 µM | 2.4 µM | ≧5-50 μM | 19 ± 5 µM | 76 ± 8 µM |  |  |  | 
CCCCCCCCCCCNC1C(=O)NC2Cc3ccc(c(Cl)c3)Oc3cc4cc(c3O)Oc3ccc(cc3Cl)C(O)C3NC(=O)C(NC(=O)C4NC(=O)C(NC2=O)c2cc(O)cc(c2)Oc2cc1ccc2O)c1ccc(O)c(c1)-c1c(O)cc(O)cc1C(C(=O)NCCCN(C)C)NC3=O (stereo not drawn) [Compound 32] | 30 µM | 5.5 ± 2.1 µM | 12.5 ± 3.5 µM | 90 ± 27 µM | ≥ 5 µM | 2.3 µM | 20 µM | 23 ± 7 µM | 35 ± 2 µM |  |  |  | 
CCCCCCCCCCNCc1c(O)cc2c(c1O)-c1cc(ccc1O)C1NC(=O)C3NC(=O)C4NC(=O)C(Cc5ccc(c(Cl)c5)Oc5cc3cc(c5O)Oc3ccc(cc3Cl)C(O)C(NC1=O)C(=O)NC2C(=O)NC)NC(=O)C(NC(=O)C(N)CCCCN)c1ccc(O)c(c1)Oc1cc(O)cc4c1 (stereo not drawn) [Compound 24] | 87 µM | 4 µM | 6 µM | 46 ± 8 µM | 1.2 µM | 1.9 µM | ≧5 μM | 12 ± 6 µM | 41 ± 8 µM |  |  |  | 
CNC(=O)C1NC(=O)C2NC(=O)C(NC(=O)C3NC(=O)C(CC(N)=O)NC(=O)C(NC(=O)C(CC(C)C)NC)C(O)c4ccc(c(Cl)c4)Oc4cc3cc(c4O)Oc3ccc(cc3)C2O)c2ccc(O)c(c2)-c2c1cc(O)c(CN1CCN(Cc3ccc(-c4ccccc4)cc3)CC1)c2O (stereo not drawn) [Compound 8] | > 50 µM | 4 ± 1.7 µM | 5.5 ± 0.7 µM | > 100 µM | 2.3 µM | 1.5 µM | ≧20 μM | > 100 µM | > 100 µM |  |  | pronounced activity | 
CCCCCCCCCC[N+](C)(C)CCCNCc1c(O)cc2c(c1O)-c1cc(ccc1O)C1NC(=O)C3NC(=O)C(CC(N)=O)NC(=O)C(NC(=O)C(CC(C)C)NC)C(O)c4ccc(c(Cl)c4)Oc4cc3cc(c4OC3OC(CO)C(O)C(O)C3OC3CC(C)(N)C(O)C(C)O3)Oc3ccc(cc3)C(OC3CC(C)(N)C(O)C(C)O3)C(NC1=O)C(=O)NC2C(=O)NCCCN(C)C (stereo not drawn) [Compound 4] |  | 7 µM | > 20 µM | 27 ± 7 µM |  |  |  | 16 ± 6 µM | 33 ± 5 µM |  |  |  | 
CCCCCCCCCCNC(=O)C(N)CCCCNC(=O)C1NC(=O)C2NC(=O)C(NC(=O)C3NC(=O)C4NC(=O)C(Cc5ccc(c(Cl)c5)Oc5cc3cc(c5O)Oc3ccc(cc3Cl)C2O)NC(=O)C(N)c2ccc(O)c(c2)Oc2cc(O)cc4c2)c2ccc(O)c(c2)-c2c(O)cc(O)cc21 (stereo not drawn) [Compound 23] |  | 2.6 ± 2 µM | 5.5 ± 0.7 µM | 58 ± 35 µM |  |  |  | 5.7 ± 0.27 µM | 22 ± 22 µM |  |  |  | 
CCCCCCCCCC[N+](C)(C)CCCNCc1c(O)cc2c(c1O)-c1cc(ccc1O)C1NC(=O)C3NC(=O)C4NC(=O)C(Cc5ccc(cc5)Oc5cc3cc(c5OC3OC(C(=O)NCCCN(C)C)C(O)C(O)C3N)Oc3ccc(cc3Cl)C(O)C(NC1=O)C(=O)NC2C(=O)NCCCN(C)C)NC(=O)C(NC)c1ccc(O)c(c1)Oc1cc(O)c(Cl)c4c1 (stereo not drawn) [Compound 14] |  | 3.5 ± 0.7 µM | ≥ 20 µM | 92 ± 5 µM |  |  |  | 27 ± 0.3 µM | 22 ± 4.7 µM |  |  |  | 
C[N+](C)(C)CCCNC(=O)C1NC(=O)C2NC(=O)C(NC(=O)C3NC(=O)C4NC(=O)C(Cc5ccc(c(Cl)c5)Oc5cc3cc(c5O)Oc3ccc(cc3Cl)C2O)NC(=O)C(N)c2ccc(O)c(c2)Oc2cc(O)cc4c2)c2ccc(O)c(c2)-c2c1cc(O)c(CN1CCN(Cc3ccc(-c4ccccc4)cc3)CC1)c2O (stereo not drawn) [Compound 29] |  | 4.5 ± 0.7 µM | 22 ± 3.5 µM | > 250 µM |  |  |  | 26 ± 8.1 µM | 35 ± 8.2 µM |  |  |  | 
CCCCCCCCCC[N+](C)(C)CCCNCc1c(O)cc2c(c1O)-c1cc(ccc1O)C1NC(=O)C3NC(=O)C4NC(=O)C(Cc5ccc(c(Cl)c5)Oc5cc3cc(c5O)Oc3ccc(cc3Cl)C(O)C(NC1=O)C(=O)NC2C(=O)NCCCN(C)C)NC(=O)C(N)c1ccc(O)c(c1)Oc1cc(O)cc4c1 (stereo not drawn) [Compound 34] |  | 2.7 ± 1.84 µM | 4.5 ± 0.7 µM | 50 ± 8 µM |  |  |  | 23 ± 11 µM | 68 ± 1 µM |  |  |  | 
NCCCCCCCCCCNC(=O)C1NC(=O)C2NC(=O)C(NC(=O)C3NC(=O)C4NC(=O)C(Cc5ccc(c(Cl)c5)Oc5cc3cc(c5O)Oc3ccc(cc3Cl)C2O)NC(=O)C(N)c2ccc(O)c(c2)Oc2cc(O)cc4c2)c2ccc(O)c(c2)-c2c(O)cc(O)cc21 (stereo not drawn) [Compound 43] |  | 6.5 ± 0.7 µM | 12.5 ± 3.5 µM | 402 ± 138 µM |  |  |  | ≥ 500 µM | 225 ± 8 µM |  |  |  | 
CNC(CC(C)C)C(=O)NC1C(=O)NC(CC(N)=O)C(=O)NC2C(=O)NC3C(=O)NC(C(=O)NC(C(=O)O)c4cc(O)cc(O)c4-c4cc3ccc4O)C(O)c3ccc(cc3)Oc3cc2cc(c3O)Oc2ccc(cc2Cl)C1O (stereo not drawn) [Eremomycin aglycon] |  | 50 ± 28 µM | 250 µM | > 500 µM |  |  |  | > 500 µM | > 500 µM |  |  |  | 
CNC1C(=O)NC2Cc3ccc(cc3)Oc3cc4cc(c3OC3OC(C(=O)NCCC[N+](C)(C)Cc5ccc(-c6ccccc6)cc5)C(O)C(O)C3N)Oc3ccc(cc3Cl)C(O)C3NC(=O)C(NC(=O)C4NC(=O)C(NC2=O)c2cc(cc(O)c2Cl)Oc2cc1ccc2O)c1ccc(O)c(c1)-c1c(OC2OC(CO)C(O)C(O)C2O)cc(O)cc1C(C(=O)NCCC[N+](C)(C)Cc1ccc(-c2ccccc2)cc1)NC3=O (stereo not drawn) [Compound 10] |  | 4 ± 1.4 µM | > 10 µM | 32 ± 5 µM |  |  |  | 44 ± 2.9 µM | 27 ± 14 µM |  |  |  | 
CCCCCCCCCCCCCCCCCCNCc1c(O)cc2c(c1O)-c1cc(ccc1O)C1NC(=O)C3NC(=O)C(CC(N)=O)NC(=O)C(NC(=O)C(CC(C)C)NC)C(O)c4ccc(c(Cl)c4)Oc4cc3cc(c4OC3OC(CO)C(O)C(O)C3OC3CC(C)(N)C(O)C(C)O3)Oc3ccc(cc3)C(OC3CC(C)(N)C(O)C(C)O3)C(NC1=O)C(=O)NC2C(=O)O (stereo not drawn) [Compound 63] |  |  |  |  |  |  |  |  |  | 3.4 µM | 15 µM |  | active
CCCCCCCCCC[N+](C)(C)CCCNCc1c(O)cc2c(c1O)-c1cc(ccc1O)C1NC(=O)C3NC(=O)C4NC(=O)C(Cc5ccc(c(Cl)c5)Oc5cc3cc(c5O)Oc3ccc(cc3Cl)C(O)C(NC1=O)C(=O)NC2C(=O)O)NC(=O)C(N)c1ccc(O)c(c1)Oc1cc(O)cc4c1 (stereo not drawn) [Compound 33] | ≥ 200 µM | 2.2 µM | 7.5 ± 0.7 µM | 74 ± 5 µM | ≥ 5 µM | 2.4 µM | 5 to 50 µM | 51 ± 26 µM | 65 ± 1 µM |  |  |  | 

— patent US20050250677A1, “Glycopeptide antibiotic derivatives” (priority 2002, published 2005)
